Measurements: patent US20240150377A1, “MODULATORS OF CYSTIC FIBROSIS TRANSMEMBRANE CONDUCTANCE REGULATOR” (VERTEX PHARMACEUTICALS INCORPORATED, priority 2020, published 2024)

Biological target: T1, CFTR (Homo sapiens, UniProt P13569, DEL508-508)
T1 construct: endogenous in cells; host or cells: primary human bronchial epithelial cells from CF subjects (F508del/MF-HBE), differentiated at air-liquid interface
Assay: HBE2 assay: Ussing chamber assay of CFTR-mediated short-circuit currents
Assay type: cell-based
Conditions: F508del/MF-HBE cells, with 44 nM potentiator, 18-24 hours, 20% human serum; for Emax: read-out: HBE2 Max activity (%)
How it was run: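 Corrector activity read as CFTR-dependent ISC (μA/cm^2): peak forskolin current minus post-inhibitor steady state. Measured at 37 °C, voltage clamp at 0 mV, on F508del/MF-HBE epithelia grown >14 days air-liquid interface in Ussing chambers.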

T1 sequence (P13569 with tags, fused parts or gaps DEL508-508): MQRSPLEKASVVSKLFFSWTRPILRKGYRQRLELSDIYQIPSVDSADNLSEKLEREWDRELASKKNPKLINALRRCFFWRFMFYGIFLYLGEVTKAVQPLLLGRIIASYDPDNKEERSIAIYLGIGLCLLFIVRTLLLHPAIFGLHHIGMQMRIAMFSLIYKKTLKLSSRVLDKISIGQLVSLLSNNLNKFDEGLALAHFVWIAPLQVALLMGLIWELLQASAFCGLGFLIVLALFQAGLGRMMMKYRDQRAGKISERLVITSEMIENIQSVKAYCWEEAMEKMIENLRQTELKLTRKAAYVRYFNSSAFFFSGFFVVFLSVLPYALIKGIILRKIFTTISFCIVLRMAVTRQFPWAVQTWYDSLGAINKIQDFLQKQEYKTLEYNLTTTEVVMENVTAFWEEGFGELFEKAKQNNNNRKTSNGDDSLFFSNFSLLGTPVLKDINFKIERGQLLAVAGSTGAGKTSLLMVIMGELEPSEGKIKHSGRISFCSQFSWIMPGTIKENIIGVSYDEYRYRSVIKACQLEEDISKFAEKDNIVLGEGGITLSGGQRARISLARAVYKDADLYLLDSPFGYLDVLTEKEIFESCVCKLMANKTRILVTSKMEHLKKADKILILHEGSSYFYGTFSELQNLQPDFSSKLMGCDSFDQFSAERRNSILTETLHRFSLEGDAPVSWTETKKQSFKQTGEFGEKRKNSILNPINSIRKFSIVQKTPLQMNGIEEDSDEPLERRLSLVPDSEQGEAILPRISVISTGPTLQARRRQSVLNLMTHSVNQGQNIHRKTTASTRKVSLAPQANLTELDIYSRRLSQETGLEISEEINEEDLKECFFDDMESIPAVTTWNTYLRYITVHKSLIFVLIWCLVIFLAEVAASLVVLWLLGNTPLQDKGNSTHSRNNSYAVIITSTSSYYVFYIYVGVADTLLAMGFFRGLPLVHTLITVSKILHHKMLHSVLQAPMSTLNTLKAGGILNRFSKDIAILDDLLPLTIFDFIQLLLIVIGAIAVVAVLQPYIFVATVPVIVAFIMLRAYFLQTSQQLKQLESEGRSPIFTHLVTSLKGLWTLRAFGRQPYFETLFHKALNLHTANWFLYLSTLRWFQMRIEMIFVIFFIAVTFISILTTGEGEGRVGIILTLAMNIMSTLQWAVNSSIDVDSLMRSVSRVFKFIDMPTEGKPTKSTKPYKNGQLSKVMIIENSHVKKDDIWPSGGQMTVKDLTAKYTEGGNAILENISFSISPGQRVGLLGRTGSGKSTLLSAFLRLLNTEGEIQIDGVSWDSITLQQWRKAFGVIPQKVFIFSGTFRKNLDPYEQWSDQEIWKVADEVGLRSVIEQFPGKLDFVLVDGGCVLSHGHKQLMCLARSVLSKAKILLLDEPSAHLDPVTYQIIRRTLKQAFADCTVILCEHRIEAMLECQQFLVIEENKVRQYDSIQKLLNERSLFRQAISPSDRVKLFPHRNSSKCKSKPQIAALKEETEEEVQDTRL

| Structure (SMILES) | HBE2 Activity at 3 μM (%) (3 μM) | HBE2 Activity at 3 μM (%) (3 μM corrector) | other results |
| --- | --- | --- | --- |
| Cc1cccc(C)c1-c1cc2nc(n1)NS(=O)(=O)c1cccc(c1)C(=O)N(Cc1cncc(N3CCC[C@@H](C)[C@H]3C)n1)[C@H](CC(C)(C)C)CO2 [Compound 1783] |  | +++ (+++ is >60+) |  |
| COC[C@@H]1CCN1c1cncc(CN2C(=O)c3cccc(c3)S(=O)(=O)Nc3nc(cc(-c4c(C)cccc4C)n3)OC[C@H]2CC(C)(C)C)n1 [Compound 1549] | +++ (+++ is >60+) |  | EC50: < 1000 nM; Emax: > 60% |
| Cc1cccc(C)c1-c1cc2nc(n1)NS(=O)(=O)c1cccc(c1)C(=O)N(Cc1cncc(N3CCC[C@@H]4CC[C@@H]43)n1)[C@H](CCC(C)C)CO2 [Compound 1747] |  | +++ (+++ is >60+) |  |
| Cc1cccc(C)c1-c1cc2nc(n1)NS(=O)(=O)c1cccc(c1)C(=O)N(Cc1cncc(N3CCCC[C@H]3C)n1)[C@H](CC1CC1)CO2 [Compound 1792] |  | +++ (+++ is >60+) |  |
| Cc1cccc(C)c1-c1cc2nc(n1)NS(=O)(=O)c1cccc(c1)C(=O)N(Cc1cncc(N3C(=O)OC[C@H]3C)n1)[C@H](CC(C)(C)C)CO2 [Compound 1653] | +++ (+++ is >60+) |  |  |
| Cc1cccc(C)c1-c1cc2nc(n1)NS(=O)(=O)c1cccc(c1)C(=O)N(Cc1cncc(N(C)CC(=O)N(C)C)n1)[C@H](CC(C)(C)C)CO2 [Compound 1630] | ++ (++ is 30-60%) |  |  |
| Cc1cccc(C)c1-c1cc2nc(n1)NS(=O)(=O)c1cccc(c1)C(=O)N(Cc1cncc(N(C)C3CCC3)n1)[C@H](CC1(C(F)(F)F)CC1)CO2 [Compound 1688] | +++ (+++ is >60+) |  | EC50: < 1000 nM; Emax: > 60% |
| Cc1cccc(C)c1-c1cc2nc(n1)NS(=O)(=O)c1cccc(c1)C(=O)N(Cc1cncc(N3CC[C@H]3C)n1)[C@H](CC1CCCCC1)CO2 [Compound 1823] |  | +++ (+++ is >60+) |  |
| Cc1cccc(C)c1-c1cc2nc(n1)NS(=O)(=O)c1cccc(c1)C(=O)N(Cc1ncc(OC3CCC3)cc1F)[C@H](COC(C)C)CO2 [Compound 1953] |  | +++ (+++ is >60+) |  |
| Cc1cccc(C)c1-c1cc2nc(n1)NS(=O)(=O)c1cccc(c1)C(=O)N(Cc1cncc(N3CC[C@@H]4COC[C@@H]43)n1)[C@H](CC(C)(C)C)CO2 [Compound 1541] |  |  | EC50: < 1000 nM; Emax: > 60% |
| COCCN(C)c1nc(CN2C(=O)c3cccc(c3)S(=O)(=O)Nc3nc(cc(-c4c(C)cccc4C)n3)OC[C@H]2CC(C)(C)C)co1 [Compound 1409] | +++ (+++ is >60+) |  |  |
| Cc1cccc(C)c1-c1cc2nc(n1)NS(=O)(=O)c1cccc(c1)C(=O)N(Cc1cncc(N(C)[C@H]3C[C@H](F)C3)n1)[C@H](COC1CC1)CO2 [Compound 1907] |  | +++ (+++ is >60+) |  |
| CCN(c1cncc(CN2C(=O)c3cccc(c3)S(=O)(=O)Nc3nc(cc(-c4c(C)cccc4C)n3)OC[C@H]2COC2CC2)n1)C1CCC1 [Compound 1925] |  | +++ (+++ is >60+) |  |
| CCn1c(C(C)C)cc2ncc(CN3C(=O)c4cccc(c4)S(=O)(=O)Nc4nc(cc(-c5c(C)cccc5C)n4)OC[C@H]3COC(C)C)nc21 [Compound 1933] |  | +++ (+++ is >60+) |  |
| Cc1cccc(C)c1-c1cc2nc(n1)NS(=O)(=O)c1cccc(c1)C(=O)N(Cc1cncc(N3CC[C@H]3C3CCC3)n1)[C@H](CC(C)(C)C)CO2 (stereo in doubt) [Compound 1637] | +++ (+++ is >60+) |  |  |
| COCCN(C)c1cncc(CN2C(=O)c3cccc(c3)S(=O)(=O)Nc3nc(cc(-c4c(C)cccc4C)n3)OC[C@H]2CCC(C)(C)C)n1 [Compound 1812] |  | +++ (+++ is >60+) |  |
| Cc1cccc(C)c1-c1cc2nc(n1)NS(=O)(=O)c1cccc(c1)C(=O)N(Cc1cncc(N3CCCO[C@H]4CC[C@H]43)n1)[C@H](CC(C)(C)C)CO2 (stereo in doubt) [Compound 1951] |  | +++ (+++ is >60+) |  |
| Cc1cccc(C)c1-c1cc2nc(n1)NS(=O)(=O)c1cccc(c1)C(=O)N(Cc1cncc(N(C)[C@H]3C[C@H](F)C3)n1)[C@H](CCC(C)(C)C)CO2 [Compound 1849] |  | +++ (+++ is >60+) |  |
| Cc1cccc(C)c1-c1cc2nc(n1)NS(=O)(=O)c1cccc(c1)C(=O)N(Cc1cncc(N(C)CCO)n1)[C@H](CC(C)(C)C)CO2 [Compound 1665] | +++ (+++ is >60+) |  |  |
| Cc1cccc(C)c1-c1cc2nc(n1)NS(=O)(=O)c1cccc(c1)C(=O)N(Cc1cncc(N3CC[C@H]3C)n1)[C@H](CC1CC1)CO2 [Compound 1778] |  | +++ (+++ is >60+) |  |
| Cc1cccc(C)c1-c1cc2nc(n1)NS(=O)(=O)c1cccc(c1)C(=O)N(Cc1cncc(N3CC[C@H]4CN(C(=O)OC(C)C)CC43)n1)[C@H](CC(C)(C)C)CO2 (stereo in doubt) [Compound 1664] | +++ (+++ is >60+) |  |  |
| Cc1cccc(C)c1-c1cc2nc(n1)NS(=O)(=O)c1cccc(c1)C(=O)N(Cc1cncc(N3CCCC3c3ccnn3C)n1)[C@H](CC(C)(C)C)CO2 (stereo partly drawn) [Compound 1605] | +++ (+++ is >60+) |  |  |

The next lines start with results.

| HBE2 Activity at 3 μM (%) (3 μM) | HBE2 Activity at 3 μM (%) (3 μM corrector) | Structure (SMILES) | other results |
| --- | --- | --- | --- |
| +++ (+++ is >60+) |  | Cc1ccccc1-c1cc2nc(n1)NS(=O)(=O)c1cccc(c1)C(=O)N(Cc1cncc(N(C)C3CCC3)n1)[C@H](CC(C)(C)C)CO2 [Compound 1705] | EC50: < 1000 nM; Emax: > 60% |
|  | +++ (+++ is >60+) | Cc1cccc(C)c1-c1cc2nc(n1)NS(=O)(=O)c1cccc(c1)C(=O)N(Cc1cncc(N(C)C3CCC3)n1)[C@H](CCC1(C)CC1)CO2 [Compound 1336, 12-[[6-[cyclobutyl(methyl)amino]pyrazin-2-yl]methyl]-6-(2,6-dimethylphenyl)-11-[2-(1-methylcyclopropyl)ethyl]-2,2-dioxo-9-oxa-2λ^6-thia-3,5,12,19-tetrazatricyclo[12.3.1.14,8]nonadeca-1(18),4(19),5,7,14,16-hexaen-13-one] |  |
| +++ (+++ is >60+) |  | Cc1cccc(C)c1-c1cc2nc(n1)NS(=O)(=O)c1cccc(c1)C(=O)N(Cc1ncc(N3CCC(C)(C)C3)cn1)[C@H](CC1(C)CC1)CO2 [Compound 1561] |  |
|  | +++ (+++ is >60+) | Cc1cccc(C)c1-c1cc2nc(n1)NS(=O)(=O)c1cccc(c1)C(=O)N(Cc1cncc(N(C)C3CCC3)n1)[C@@H]1CN(C3CC4(CC4)C3)C[C@H]1O2 [Compound 1742] |  |
|  | +++ (+++ is >60+) | Cc1cccc(C)c1-c1cc2nc(n1)NS(=O)(=O)c1cccc(c1)C(=O)N(Cc1cncc(N3CCCC4CCC43)n1)[C@H](CC1(C)CCC1)CO2 (stereo partly drawn) [Compound 1793] |  |
| +++ (+++ is >60+) |  | Cc1cccc(C)c1-c1cc2nc(n1)NS(=O)(=O)c1cccc(c1)C(=O)N(Cc1cncc(N(C)C3CCC3)n1)[C@H](CC1(C)CC1)CO2 [Compound 1668] | EC50: < 1000 nM; Emax: > 60% |
| +++ (+++ is >60+) |  | Cc1cccc(C)c1-c1cc2nc(n1)NS(=O)(=O)c1cccc(c1)C(=O)N(Cc1cncc(N3CC(=O)N(C)C[C@H]3C)n1)[C@H](CC(C)(C)C)CO2 [Compound 1644] |  |
| +++ (+++ is >60+) |  | CCN(c1cccc(CN2C(=O)c3cccc(c3)S(=O)(=O)Nc3nc(cc(-c4c(C)cccc4C)n3)OC[C@H]2CC(C)(C)C)n1)C1CCC1 [Compound 1587] | EC50: < 1000 nM; Emax: > 60% |
| +++ (+++ is >60+) |  | Cc1cccc(C)c1-c1cc2nc(n1)NS(=O)(=O)c1cccc(c1)C(=O)N(Cc1coc(N(C)C3CCC3)n1)[C@H](CC(C)(C)C)CO2 [Compound 1318, (11R)-12-[[2-[Cyclobutyl(methyl)amino]oxazol-4-yl]methyl]-6-(2,6-dimethylphenyl)-11-(2,2-dimethylpropyl)-2,2-dioxo-9-oxa-2λ^6-thia-3,5,12,19-tetrazatricyclo[12.3.1.14,8]nonadeca-1(18),4(19),5,7,14,16-hexaen-13-one] |  |
| +++ (+++ is >60+) |  | COc1cc(CN2C(=O)c3cccc(c3)S(=O)(=O)Nc3nc(cc(-c4c(C)cccc4C)n3)OC[C@H]2CC(C)(C)C)nc(N(C)C2CCC2)c1 [Compound 1700] |  |
|  | +++ (+++ is >60+) | Cc1cccc(C)c1-c1cc2nc(n1)NS(=O)(=O)c1cccc(c1)C(=O)N(Cc1cncc(N(C)CC(C)C)n1)[C@H](CC1CCCC1)CO2 [Compound 1845] |  |
|  | +++ (+++ is >60+) | Cc1cccc(C)c1-c1cc2nc(n1)NS(=O)(=O)c1cccc(c1)C(=O)N(Cc1cncc(N(C)C(C)C)n1)[C@H](CCC1CC1)CO2 [Compound 1718] |  |
| +++ (+++ is >60+) |  | Cc1cccc(C)c1-c1cc2nc(n1)NS(=O)(=O)c1cccc(c1)C(=O)N(Cc1cncc(N3CCCC34CCC4)n1)[C@H](CC(C)(C)C)CO2 [Compound 1625] |  |
|  | +++ (+++ is >60+) | Cc1cccc(C)c1-c1cc2nc(n1)NS(=O)(=O)c1cccc(c1)C(=O)N(Cc1cncc(N3CCC[C@H]3C3CC3)n1)[C@H](CCC(C)(C)C)CO2 [Compound 1813] |  |
|  | +++ (+++ is >60+) | Cc1cccc(C)c1-c1cc2nc(n1)NS(=O)(=O)c1cccc(c1)C(=O)N(Cc1cncc(N(C)C(C)C)n1)[C@H](CC1(C)CCC1)CO2 [Compound 1745] |  |
|  | +++ (+++ is >60+) | Cc1cccc(C)c1-c1cc2nc(n1)NS(=O)(=O)c1cccc(c1)C(=O)N(Cc1cncc(N3CC[C@H]3C(C)C)n1)[C@H](CCC(C)(C)C)CO2 [Compound 1797] |  |
| +++ (+++ is >60+) |  | Cc1cccc(C)c1-c1cc2nc(n1)NS(=O)(=O)c1cccc(c1)C(=O)N(Cc1ncc(OC(C)C)cn1)[C@H]([C@@H](C)C(C)C)CO2 (stereo in doubt) [Compound 1573] |  |
| +++ (+++ is >60+) |  | Cc1cccc(C)c1-c1cc2nc(n1)NS(=O)(=O)c1cccc(c1)C(=O)N(Cc1cncc(OC3CCC3)n1)[C@H](CC(C)(C)C)CO2 [Compound 1601] |  |
